# Values joined by “and” are separate entries in the source; they are usually repeats but may differ in a detail not shown here. Equal entries are not always repeated.
# Test system: P. falciparum 3D7 growth, pLDH absorbance
# Test: blood-stage malaria parasite growth potency – strain 3D7, dose response (AID 2305)
row,Structure (SMILES),IC50
1,N#Cc1ccc(-c2ccc(C(=O)NC3CCN(CCN4CCC(c5cn(CCO)c6ccccc56)CC4)CC3)cc2)cc1,760 nM
2,CCOc1ccc(NC(=O)c2ccc(CN3CCCN(Cc4cccc(O)c4)CC3)cc2)cc1,1310 nM
3,O=C(/C=C/c1ccc(Cl)c(Cl)c1)Nc1cccc(CN2CCC(c3c[nH]c4ccccc34)CC2)c1,670 nM
4,Clc1ccc(-c2[nH]c3ccccc3c2CN2CCC(N3CCCCC3)CC2)cc1,1060 nM
5,CCCCN(CCCC)Cc1cc(N(C)c2ccc([N+](=O)[O-])cn2)ccc1O,540 nM
6,Nc1nc(N)c2c(ccc3nn(Cc4ccccc4)cc32)n1,210 nM
7,Cc1nc(N=C(N)N)nc2ccc(C(C)(C)C)cc12,750 nM
8,O=C(Nc1cccc(CN2CCCN(Cc3ncc[nH]3)CC2)c1)c1cc2ccccc2s1,730 nM
9,Nc1nc(N)c2c(ccc3c2ccn3CCCC2CCCNC2)n1 (configuration not stated),900 nM
10,COc1ccc(F)cc1-c1cccc(CNC2CCN(CC3Cn4c(=O)ccc5ccc(F)c3c54)CC2)c1 (configuration not stated),830 nM
11,COc1cc2nc(NCCN3CCOCC3)n3nc(-c4ccccc4)nc3c2cc1OC,220 nM
12,O=C(Nc1cccc(-c2cccc(-c3nc4ccc(F)cc4[nH]3)c2)c1)c1csnn1,790 nM
13,CC(=O)Oc1cc(OCc2ccccc2)c(OC(C)=O)c(OCc2ccccc2)c1,410 nM
14,O=C(Cc1cccc2ccccc12)NC1CCN(c2ccnc3cc(Cl)ccc23)C1 (configuration not stated),250 nM
15,C=CCn1c(=N)c(C(=O)NC2CCCCC2)cc2c(=O)n3cccc(C)c3nc21,1040 nM
16,O=S(=O)(NC1CCN(c2ccnc3cc(Cl)ccc23)C1)c1ccc(C(F)(F)F)cc1 (configuration not stated),300 nM
17,Fc1ccc(OC2CN(c3nccc(NCc4ccccc4Cl)n3)C2)cc1,900 nM
18,O=C(Nc1ccc(-c2cccc(-c3nc4ccc(F)cc4[nH]3)c2)cc1)Nc1ccc(Cl)c(Cl)c1,650 nM
19,CC(Cc1ccc(C(C)(C)C)cc1)NCC(O)c1ccccc1 (configuration not stated),1810 nM
20,CCN(CC)CCOc1c(Cl)cc(Cl)cc1CNCCCNc1cc(=O)c2ccccc2[nH]1,870 nM
21,Cc1cc2c(cc1C(F)(F)F)N(C(=O)Nc1cnc(OCCN(C)C)c(C(F)(F)F)c1)CC2,970 nM
22,CCN(CC)CCN(Cc1ccc(-c2ccc(C(F)(F)F)cc2)cc1)C(=O)Cn1cc(Cc2cnn(C)c2)c(=O)nc1/C=C/c1cccc(F)c1F,960 nM
23,CC(NC(=O)c1ccc(O)c(-c2ccc(Cl)c(Cl)c2)c1)C(=O)NCCN1CCCC1 (configuration not stated),760 nM
24,NC(=O)c1ccc(C(=O)Nc2cccc(-c3cccc(-c4nc5ccc(C(F)(F)F)cc5[nH]4)c3)c2)cc1,230 nM
25,O=C(Nc1ccc(C(F)(F)F)cc1)c1ccc(S(=O)(=O)NC2CCN(CC3CCCCC3)C2)cc1 (configuration not stated),720 nM

row,Structure (SMILES),IC50
1,CCOC(=O)CNC(=O)c1cc(=O)c2ccccc2o1,210 nM
2,CC[C@H](N=C(Nc1ccc(C#N)cc1O)Nc1cccc(Cl)c1Cl)c1ccccc1,820 nM
3,Cc1nnc(Sc2ncnc3scc(-c4ccc(F)cc4)c23)s1,810 nM
4,CCCc1c(C(=O)NC2CCC(CN3CCC(c4c[nH]c5ccccc45)CC3)CC2)cnn1-c1c(Cl)cc(Cl)cc1Cl (configuration not stated),820 nM
5,Cc1cc(NCCc2cccc(F)c2)nc(/N=C(\N)Nc2cccc(C(F)(F)F)c2)n1,150 nM
6,CN1CCN(Cc2cc3cc(NC(=O)/C=C/c4cccc(Cl)c4)ccc3s2)CC1,270 nM
7,O=C(Nc1ccc(CCNC2=NCCN2)cc1)Nc1ccc(CCNC2=NCCN2)cc1,790 nM
8,COc1ccc(-c2ccc3c(-c4ccc(F)cc4)cnc(N)c3c2)cn1,390 nM
9,CC(C)c1ccc(N(CC(=O)N/N=C/c2ccc(C(F)(F)F)cc2)S(=O)(=O)c2ccc(C(F)(F)F)cc2)cc1,850 nM
10,O=C(c1ccc(Cl)c(Cl)c1)N1CCc2c([nH]c3ccccc23)C1CN1CCCC1 (configuration not stated),830 nM
11,COc1cccc(Cc2c(C)nc3nc(N)nc(N)c3c2C)c1,880 nM
12,Cc1nc(Nc2ccncc2)cc(-c2ccncc2)n1,730 nM
13,OCC1CCN(Cc2ccc(-c3ccc(-c4nc5ccc(C(F)(F)F)cc5[nH]4)cc3)cc2)CC1,700 nM
14,COc1c(C2CCN(CCCCNC(=O)c3cc(-c4ccc(Cl)cc4)sc3C)CC2)ccc2c1CCCC2,630 nM
15,O=C(Cc1cccc(Cl)c1)Nc1cccc(-c2c[nH]c3nc(Nc4cccc(O)c4)ncc23)c1,730 nM
16,CCCCCCOc1ccc(C(=O)NCCC2CCN(CCCCCNC(=O)C=Cc3ccc(Cl)c(Cl)c3)CC2)cc1,660 nM
17,O=C(NC1CCC(CN2CCC(c3c[nH]c4ccccc34)CC2)CC1)c1cc(-c2ccc(F)cc2F)ccc1O (configuration not stated),360 nM
18,COC(=O)/C=C/c1ccc(C[C@@H](C)NC[C@H](O)c2cccc(C(F)(F)F)c2)cc1,730 nM
19,Cc1ccc(S(=O)(=O)N(CCCN2CCN(C)CC2)Cc2csc(-c3ccc(CNCc4ccccc4)cc3)n2)cc1,840 nM
20,CC(C)(C)NC(=O)c1ccc(Oc2ccc(OC(F)(F)F)cc2)c(NC(=O)C(C)(C)C)c1,980 nM
21,COc1ccc(-c2c3c(=O)n(C)c(=O)n(C)c3c3nnc4ccccc4n23)cc1,990 nM
22,COc1ccc2ncc(F)c(CCN3CC[C@@H](CNCc4ccc5c(c4C)OCCO5)C3)c2n1,1030 nM
23,O=C(Nc1ccc2ccccc2c1)N(CCCn1ccnc1)Cc1csc(-c2ccc(CNCc3ccccc3)cc2)n1,740 nM
24,O=C(Nc1ccc2c(c1)CN(Cc1ccc(N3CCCC3)o1)CCC2)c1cncs1,1570 nM
25,Cc1[nH]c(CNCCCNc2cc(=O)c3ccccc3[nH]2)c(Br)c1Br,1040 nM

row,Structure (SMILES),IC50
1,Cc1cc(NN=Cc2ccc(F)cc2)c2cccc(C)c2n1,780 nM
2,c1ccc2c(NCCCCCCCCCNc3c4ccccc4nc4ccccc34)c3ccccc3nc2c1,300 nM
3,CN(c1cc(NC(=O)c2ccc(F)cc2)ccn1)C1CCN(Cc2ccc(C#N)cc2)CC1,1510 nM
4,FC(F)(F)c1cccc(Nc2nc(-n3ccnc3)nc(-n3ccnc3)n2)c1,720 nM
5,CCCCCCCCCCNCC(O)c1ccc(O)c(C(=O)OC)c1 (configuration not stated),720 nM
6,CCCNC(=O)C1CCN(C(c2ccccc2)c2ccc(Cl)c(Cl)c2)CC1 (configuration not stated),710 nM
7,Cc1cc(-c2cnc(N)c(-c3ccc(N4CCN(C)CC4)cc3)c2)cc(C)c1O,1170 nM
8,C[C@H]1CN(Cc2cccc(-c3cc(CNC(=O)c4cccc(CC5CCN(C)CC5)c4)ccc3F)c2)CCN1C,1090 nM
9,COc1ccc(OC)c(-c2ccc(O)c(CNCC(C)c3ccccc3)c2)c1 (configuration not stated),930 nM
10,CCc1ccc(CNCC(CCNc2cc(=O)c3ccccc3[nH]2)NCc2cc(Br)cc(Br)c2)o1 (configuration not stated),640 nM
11,O=C(Nc1cccnc1)c1cc(-c2cccnc2)nc2ccc(Br)cc12,640 nM
12,COc1ccc2c(c1)Nc1ccc(Cl)cc1C2N (configuration not stated),300 nM
13,CN(C)c1ccc(-c2csc(C(=O)NC3CCN(CCC(C)(C)C)C3)c2)cc1 (configuration not stated),970 nM
14,Cc1ccc(NC(=O)NC2CCN(c3ccnc4ccccc34)CC2)cc1,790 nM
15,N#Cc1ccc2c(c1)CN(CCC1CCC(NC(=O)/C=C/c3c[nH]c4ccccc34)CC1)CC2 (configuration not stated),990 nM and 900 nM
16,Cc1cccc2[nH]c(-c3cccc(-c4cccc(CNCCN5CCNCC5)c4)c3)nc12,970 nM
17,Clc1cccc(C=NNc2ccnc3ccccc23)c1,850 nM
18,CN1CCC(N(Cc2ccc(-c3ccc(C(F)(F)F)cc3)nc2)C(=O)Cn2c(CCc3cccc(F)c3F)cc(=O)c3ccccc32)CC1,1100 nM
19,COc1cc(C(=O)NCc2nn(CCN3CCC(N4CCCC4)CC3)cc2-c2ccc(Cl)c(Cl)c2)cc(OC)c1OC,770 nM
20,FC(F)(F)c1ccc(CSc2ccc3nnc(-c4ccccn4)n3n2)cc1,820 nM
21,CC(C)NCc1ccc(-c2ccc(-c3nc4ccc(C(F)(F)F)cc4[nH]3)s2)cc1,180 nM
22,CCCCCN1CCN(Cc2cccc(NC(=O)c3ccc(Cl)c(Cl)c3)c2)CC1,860 nM
23,Cn1c2c(c3ccccc31)CN(CCC1(c3ccc(Cl)c(Cl)c3)CN(C(=O)Cc3ccccc3)CCO1)CC2 (configuration not stated),360 nM
24,N=c1n(CCN2CCCC2)c2ccccc2n1CC(O)c1ccc(Cl)c(Cl)c1 (configuration not stated),280 nM
25,Cc1nc2ccc3ccc(CNc4ccc(C(=O)N[C@@H](CCC(=O)O)C(=O)O)cc4)cc3c2c(=O)[nH]1,180 nM

row,Structure (SMILES),IC50
1,CC(C)N(CCOc1ccc2c(c1)N(C(=O)Nc1ccc(Cl)c(Cl)c1)CC2)C(C)C,370 nM
2,Cc1ccoc1C(=O)Nc1ccc(-c2cccc(-c3nc4c(C)cccc4[nH]3)c2)cc1,730 nM
3,Cn1cncc1C(=O)Nc1cccc(-c2ccc(-c3nc4ccc(F)cc4[nH]3)cc2)c1,730 nM
4,CC[C@H]1CN2CC[C@H]1C[C@@H]2[C@@H](OC(=O)c1ccc(Cl)cc1)c1ccnc2ccc(OC)cc12,920 nM
5,Cc1cccc2[nH]c(C3CCN(CC4CCN(C(=O)/C=C/c5ccc(Cl)c(Cl)c5)CC4)CC3)nc12,480 nM
6,Cc1cc(Br)cnc1CCCCNc1cc(=O)c2ccccc2[nH]1,1160 nM
7,C=C[C@H]1CN(CCCCCCC)CC[C@H]1CCN(C)c1ccnc2ccc(OC)cc12,450 nM
8,CCc1c[nH]c2c(N3CCCC3=O)cc(C(=O)N[C@@H](Cc3ccccc3)[C@H](O)CNC(C)(C)c3cccc(C(F)(F)F)c3)cc12,120 nM
9,COc1ccc2nccc([C@@H](O)CN3CCC(NC(=O)Cc4cccc5c(Br)cccc45)CC3)c2c1,800 nM
10,COc1ccc2nccc([C@@H](O)CN3CCC(NCCOc4ccc(F)cc4[N+](=O)[O-])CC3)c2c1,120 nM
11,CCCCCN1CCC(NS(=O)(=O)c2cccc(C(=O)Nc3ccc(Cl)cc3)c2)CC1,920 nM
12,CC(C)(C)CCOC(=O)N1CCc2c(cc(O)c(O)c2Cl)C(c2ccc(O)cc2)C1 (configuration not stated),750 nM
13,COc1cccc(CN2CCC(C(=O)Nc3ccc(-c4nc5ccccc5[nH]4)cc3)CC2)c1,630 nM
14,O=C1Nc2cccc3c2C1(CCCCN1CCC(c2c[nH]c4cc(C(F)(F)F)ccc24)CC1)CCC3 (configuration not stated),720 nM
15,Cc1ccc(-c2nc(Nc3ccncc3)c3ccccc3n2)s1,830 nM
16,Cc1[nH]c(C)c(-c2ccc(-c3cccc(OC(F)(F)F)c3)nc2)c(=O)c1Cl,70 nM
17,COc1ccc2c(NN=Cc3ccccc3[N+](=O)[O-])ccnc2c1,740 nM
18,COc1ccc(CNCc2ccc(-c3cccc(-c4nc5ccc(C(F)(F)F)cc5[nH]4)c3)cc2)cc1,150 nM
19,CCN(CC)CCCOc1ccc(Nc2nccc(-c3c(-c4cccc(NC(=O)c5c(F)cccc5F)c4)nn4ccccc34)n2)cc1F,410 nM
20,CN(C)CCNCc1ccc(-c2ccc(-c3nc4ccccc4[nH]3)s2)cc1,570 nM
21,Nc1nc(N)c2c(Cl)c(N3CCOCC3)ccc2n1,80 nM
22,COC(=O)c1cccc(CNCc2ccc(-c3ccc(-c4nc5ccc(F)cc5[nH]4)s3)cc2)c1,590 nM

# Source: PubChem BioAssay AID2305 (GlaxoSmithKline (GSK), 2010)
